In US9051581B2, “Defense peptides against fungal infection and method of their use” (The Curators of the University of Missouri, priority 2010, dated 2015):

What was measured:
[1] = test system: P. pachyrhizi urediniospores; experiment: In vitro inhibition of urediniospore germ tube growth by phage-display peptide clones (initial assessment, repeated trials); assay type: cell-based, Phakopsora pachyrhizi; conditions: inhibition = 50% or greater germ tube inhibition after 8 h incubation; 10^13 virions ml^−1; field-collected urediniospores
Description: Representative, affinity-selected, phage-display peptide clones were initially assessed in vitro for the ability to inhibit urediniospore germ tube growth. Two-hundred fifty phage clones, randomly chosen from the final selection round, were amplified by E. coli infection, twice purified using PEG-precipitation, and re-suspended in sterile deionized water. Phage concentrations were calculated from UV absorbance measurements as virions μl^−1 (2).
A 25-μl water droplet containing ≈300 non-germinated urediniospores collected from soybean leaves in Florida was incubated on a microscope slide in the presence of a phage clone at a concentration equivalent to 10^13 virions ml^−1. […] Urediniospores were visualized using an Olympus Stereo Zoom Microscope (model SZH; Olympus Optical Co., LTD, Tokyo, Japan) at 50× magnification under transmitted light. Images of germinating urediniospores were captured in random microscope fields with a Spot Insight Color digital camera (Diagnostic Instruments, Inc., Sterling Heights, Mich.). Images were manipulated for viewing using Spot imaging software (version 4.0.3) set up with auto exposure to provide contrast of developing germ tubes against a green background. Comparative germination was assessed in three separate experiments. Phage clones that induced greater than 50% reduction in germ tube length (by visual estimation) compared to growth in water were evaluated in seven additional experiments.

[2] = test system: Phakopsora pachyrhizi urediniospores; experiment: Effect of phage-display peptide concentration on urediniospore germ tube elongation in vitro; assay type: cell-based; conditions: for effective peptide concentration equivalent at maximal inhibition, phage-display format: five peptide copies per M13 virion at ≈10^13 virions ml^−1
Description: The bioactivities of two inhibitory phage-display peptide clones, M13-Sp2 and M13-Sp39, identified in initial assessments were estimated over a range of concentrations including 0.5, 1.0, and 1.5×10^13 virions ml^−1. As before, a 25-μl water droplet containing ≈300 urediniospores was incubated at 22° C. (4) on a microscope slide in the presence of M13-Sp2 or M13-Sp39 at each concentration. Urediniospores in these and all subsequent experiments were derived from the Missouri population, MOS-2008. Control treatments included urediniospores incubated either in water or an equivalent concentration of phage from an unselected library. Spore germination and germ tube growth were visualized over time and quantified by image capture and analyses using MetaMorph software (Version 6.2r6, Universal Imaging, Downington, Pa.). Germ tube length was measured using a line scan function based on conversion of image pixels to length. Germ tube length was averaged from 50 randomly selected germinated urediniospores in each image and across four experimental replicates per treatment.

[3] = test system: Phakopsora pachyrhizi urediniospores; experiment: In vitro inhibition of urediniospore germ tube growth by ZmCKX1-peptides; assay type: cell-based; conditions: ZmCKX1 scaffold-display format
Description: Purified ZmCKX1-Sp2 and ZmCKX1-Sp39 peptides were assessed in vitro for the ability to inhibit urediniospore germination. A 25-μl water droplet containing 300 freshly harvested MOS-2008 urediniospores was incubated on a glass slide in the presence of either ZmCKX1-Sp2 or ZmCKX1-Sp39. Control treatments included urediniospores incubated in water or in the presence of ZmCKX1 alone. Germ tube growth was visualized over time and quantified by image capture and analyses as described previously.

| Sequence | Frequency of germ tube inhibition over 10 trials [1] | effective peptide concentration equivalent at maximal inhibition, phage-display format [2] | concentration of maximal inhibition of germ tube elongation, phage-display format [2] | concentration of maximum germ tube inhibition, displayed on ZmCKX1 scaffold [3] |
| --- | --- | --- | --- | --- |
| ASTIGNLMPGHS (Random peptide insert) [Sp14, 12-mer phage-display selected peptide] | 5 |  |  |  |
| DHIRISTSYKSP (Random peptide insert) [Sp51, 12-mer phage-display selected peptide] | 3 |  |  |  |
| DRFTSDLRAPDS (Random peptide insert) [Sp61, 12-mer phage-display selected peptide] | 3 |  |  |  |
| FDPHEPTNTRSP (Random peptide insert) [Sp15, 12-mer phage-display selected peptide] | 6 |  |  |  |
| LTKEPATGRAML (Random peptide insert) [Sp18, 12-mer phage-display selected peptide] | 6 |  |  |  |
| MLESHAWPPRAI (Random peptide insert) [Sp2] | 8 | 10 nM | ≈ 10^13 virions ml^−1 | 115 µM |
| STVASLGKPTKI (Random peptide insert) [Sp8, 12-mer phage-display selected peptide] | 4 |  |  |  |
| TFDRHILDTRGS (Random peptide insert) [Sp6, 12-mer phage-display selected peptide] | 3 |  |  |  |
| TPTRSLDSPHNM (Random peptide insert) [Sp59, 12-mer phage-display selected peptide] | 4 |  |  |  |
| YISPLPNAATIS (Random peptide insert) [Sp5, 12-mer phage-display selected peptide] | 3 |  |  |  |
| YNKPSFQDHSVI (Random peptide insert) [Sp39] | 7 | 10 nM | ≈ 10^13 virions ml^−1 | 115 µM |
